According to patent US11400058B2, “Intravenous formulations of coenzyme Q10 (CoQ10) and methods of use thereof” (Berg LLC, priority 2010, dated 2022):
Marks after values point to notes of the source that are not given here.

Assay: 4-week repeat-dose toxicology study in rats with 2-week recovery (Study 20000328)
[1] = 250 mg/kg F, end of dosing, animals of 10
[2] = 250 mg/kg F, end of recovery, animals of 5
[3] = 250 mg/kg M, end of dosing, animals of 10
[4] = 250 mg/kg M, end of recovery, animals of 5

COC1=C(OC)C(=O)C(C/C=C(\C)CC/C=C(\C)CC/C=C(\C)CC/C=C(\C)CC/C=C(\C)CC/C=C(\C)CC/C=C(\C)CC/C=C(\C)CC/C=C(\C)CCC=C(C)C)=C(C)C1=O [CoQ10, Coenzyme Q10]
Spleen Histiocytic Infiltration [1]: 10
Spleen Histiocytic Infiltration, Marked [1]: 2
Spleen Histiocytic Infiltration, Mild [1]: 1
Spleen Histiocytic Infiltration, Moderate [1]: 7
ALT (250 mg/kg F, end of recovery): 63* IU/L
APPT (250 mg/kg F, end of recovery): 14.7 s
AST (250 mg/kg F, end of recovery): 153* IU/L
Body Weight, percent difference from controls (250 mg/kg F, end of recovery): −12.6%
Food Consumption, percent difference from controls (250 mg/kg F, end of recovery): +0.7%
GGT (250 mg/kg F, end of recovery): 0.58* IU/L
Liver weight (absolute), percent difference from controls (250 mg/kg F, end of recovery): +19.6%
Spleen weight (absolute), percent difference from controls (250 mg/kg F, end of recovery): +82.7* %
Adrenal Gland Vacuolation [2]: 5
Adrenal Gland Vacuolation, Marked [2]: 1
Adrenal Gland Vacuolation, Mild [2]: 0
Adrenal Gland Vacuolation, Minimal [2]: 0
Adrenal Gland Vacuolation, Moderate [2]: 4
Gross Pathology: Enlarged Spleen [2]: 2
Gross Pathology: Pale Iliac Lymph Node [2]: 4
Gross Pathology: Pale Liver [2]: 5
Gross Pathology: Pale Ovaries [2]: 4
Gross Pathology: Pale Pancreatic Lymph Node [2]: 3
Liver Focal Necrosis [2]: 1
Liver Focal Necrosis, Mild [2]: 1
Liver Focal Necrosis, Minimal [2]: 0
Liver Histiocytic Infiltration [2]: 5
Liver Histiocytic Infiltration, Mild [2]: 1
Liver Histiocytic Infiltration, Minimal [2]: 0
Liver Histiocytic Infiltration, Moderate [2]: 4
Liver Multifocal Necrosis [2]: 1
Liver Multifocal Necrosis, Mild [2]: 0
Liver Multifocal Necrosis, Moderate [2]: 1
Liver Vacuolation [2]: 5
Liver Vacuolation, Mild [2]: 0
Liver Vacuolation, Minimal [2]: 0
Liver Vacuolation, Moderate [2]: 5
Lymph Node, Man. Histiocytic Infiltration [2]: 5
Lymph Node, Man. Histiocytic Infiltration, Mild [2]: 3
Lymph Node, Man. Histiocytic Infiltration, Minimal [2]: 1
Lymph Node, Man. Histiocytic Infiltration, Moderate [2]: 1
Lymph Node, Mes. Histiocytic Infiltration [2]: 5
Lymph Node, Mes. Histiocytic Infiltration, Mild [2]: 5
Lymph Node, Mes. Histiocytic Infiltration, Minimal [2]: 0
Ovary Histiocytic Infiltration [2]: 5
Ovary Histiocytic Infiltration, Mild [2]: 4
Ovary Histiocytic Infiltration, Minimal [2]: 0
Ovary Histiocytic Infiltration, Moderate [2]: 1
Spleen Histiocytic Infiltration [2]: 5
Spleen Histiocytic Infiltration, Marked [2]: 0
Spleen Histiocytic Infiltration, Mild [2]: 4
Spleen Histiocytic Infiltration, Minimal [2]: 1
Spleen Histiocytic Infiltration, Moderate [2]: 0
Died or Sacrificed Moribund (250 mg/kg M, animals of 15): 0
ALT (250 mg/kg M, end of dosing): 35* IU/L
APPT (250 mg/kg M, end of dosing): 14.7* seconds
AST (250 mg/kg M, end of dosing): 113* IU/L
Body Weight, percent difference from controls (250 mg/kg M, end of dosing): −17.6* %
Eosinophils (250 mg/kg M, end of dosing): 0.14* 10^3/cmm
Erythrocytes (250 mg/kg M, end of dosing): 6.23 10^6/cmm
Food Consumption, percent difference from controls (250 mg/kg M, end of dosing): −16.4* %
GGT (250 mg/kg M, end of dosing): 0.16 IU/L
Hematocrit (250 mg/kg M, end of dosing): 40.4* %
Hemoglobin (250 mg/kg M, end of dosing): 12.9* g/dL
Leukocytes (250 mg/kg M, end of dosing): 15.55* 10^3/cmm
Liver weight (absolute), percent difference from controls (250 mg/kg M, end of dosing): +11.0%
Lymphocytes (250 mg/kg M, end of dosing): 12.58 10^3/cmm
Neutrophils (250 mg/kg M, end of dosing): 2.13* 10^3/cmm
Spleen weight (absolute), percent difference from controls (250 mg/kg M, end of dosing): +65.9%
Adrenal Gland Vacuolation [3]: 10
Adrenal Gland Vacuolation, Mild [3]: 5
Adrenal Gland Vacuolation, Minimal [3]: 0
Adrenal Gland Vacuolation, Moderate [3]: 5
Bone Marrow, Sternum Hyperplasia [3]: 4
Bone Marrow, Sternum Hyperplasia, Mild [3]: 4
Bone Marrow, Sternum Hyperplasia, Minimal [3]: 0
Gross Pathology: Enlarged Pancreatic Lymph Nodes [3]: 5
Gross Pathology: Pale Adrenal [3]: 4
Gross Pathology: Pale Liver [3]: 10
Gross Pathology: Pale Lymph Nodes [3]: 8
Gross Pathology: Pale Pituitary [3]: 3
Gross Pathology: Pale SQ Skin [3]: 0
Injection Site Mononuclear Cell Infiltration [3]: 10
Injection Site Mononuclear Cell Infiltration, Marked [3]: 1
Injection Site Mononuclear Cell Infiltration, Mild [3]: 0
Injection Site Mononuclear Cell Infiltration, Minimal [3]: 0
Injection Site Mononuclear Cell Infiltration, Moderate [3]: 9
Liver Focal Necrosis [3]: 0
Liver Focal Necrosis, Minimal [3]: 0
Liver Histiocytic Infiltration [3]: 10
Liver Histiocytic Infiltration, Mild [3]: 7
Liver Histiocytic Infiltration, Minimal [3]: 1
Liver Histiocytic Infiltration, Moderate [3]: 2
Liver Vacuolation [3]: 10
Liver Vacuolation, Mild [3]: 10
Liver Vacuolation, Minimal [3]: 0
Lymph Node, Man. Histiocytic Infiltration [3]: 9
Lymph Node, Man. Histiocytic Infiltration, Mild [3]: 3
Lymph Node, Man. Histiocytic Infiltration, Minimal [3]: 0
Lymph Node, Man. Histiocytic Infiltration, Moderate [3]: 6
Lymph Node, Mes. Histiocytic Infiltration [3]: 9
Lymph Node, Mes. Histiocytic Infiltration, Mild [3]: 7
Lymph Node, Mes. Histiocytic Infiltration, Minimal [3]: 1
Lymph Node, Mes. Histiocytic Infiltration, Moderate [3]: 1
Skin, Dermis Histiocytic Infiltration [3]: 0
Skin, Dermis Histiocytic Infiltration, Marked [3]: 0
Skin, Dermis Histiocytic Infiltration, Mild [3]: 0
Skin, Dermis Histiocytic Infiltration, Moderate [3]: 0
Skin, SQ Histiocytic Infiltration [3]: 0
Skin, SQ Histiocytic Infiltration, Mild [3]: 0
Spleen Histiocytic Infiltration [3]: 10
Spleen Histiocytic Infiltration, Marked [3]: 1
Spleen Histiocytic Infiltration, Mild [3]: 0
Spleen Histiocytic Infiltration, Moderate [3]: 9
ALT (250 mg/kg M, end of recovery): 96* IU/L
APPT (250 mg/kg M, end of recovery): 15.3* seconds
AST (250 mg/kg M, end of recovery): 213* IU/L
Body Weight, percent difference from controls (250 mg/kg M, end of recovery): −15.0* %
Food Consumption, percent difference from controls (250 mg/kg M, end of recovery): −14.1%
GGT (250 mg/kg M, end of recovery): 0.42 IU/L
Liver weight (absolute), percent difference from controls (250 mg/kg M, end of recovery): +7.6%
Spleen weight (absolute), percent difference from controls (250 mg/kg M, end of recovery): +38.7* %
Adrenal Gland Vacuolation [4]: 4
Adrenal Gland Vacuolation, Marked [4]: 0
Adrenal Gland Vacuolation, Mild [4]: 2
Adrenal Gland Vacuolation, Minimal [4]: 0
Adrenal Gland Vacuolation, Moderate [4]: 2
Gross Pathology: Enlarged Spleen [4]: 4
Gross Pathology: Pale Iliac Lymph Node [4]: 3
Gross Pathology: Pale Liver [4]: 5
Gross Pathology: Pale Pancreatic Lymph Node [4]: 3
Liver Focal Necrosis [4]: 2
Liver Focal Necrosis, Mild [4]: 1
Liver Focal Necrosis, Minimal [4]: 0
Liver Histiocytic Infiltration [4]: 5
Liver Histiocytic Infiltration, Mild [4]: 4
Liver Histiocytic Infiltration, Minimal [4]: 1
Liver Histiocytic Infiltration, Moderate [4]: 0
Liver Multifocal Necrosis [4]: 1
Liver Multifocal Necrosis, Mild [4]: 1
Liver Multifocal Necrosis, Moderate [4]: 0
Liver Vacuolation [4]: 5
Liver Vacuolation, Mild [4]: 0
Liver Vacuolation, Minimal [4]: 0
Liver Vacuolation, Moderate [4]: 5
Lymph Node, Man. Histiocytic Infiltration [4]: 5
Lymph Node, Man. Histiocytic Infiltration, Mild [4]: 1
Lymph Node, Man. Histiocytic Infiltration, Minimal [4]: 2
Lymph Node, Man. Histiocytic Infiltration, Moderate [4]: 2
Lymph Node, Mes. Histiocytic Infiltration [4]: 5
Lymph Node, Mes. Histiocytic Infiltration, Mild [4]: 5
Lymph Node, Mes. Histiocytic Infiltration, Minimal [4]: 0
Spleen Histiocytic Infiltration [4]: 5
Spleen Histiocytic Infiltration, Marked [4]: 1
Spleen Histiocytic Infiltration, Mild [4]: 3
Spleen Histiocytic Infiltration, Minimal [4]: 0
Spleen Histiocytic Infiltration, Moderate [4]: 1
